One assay concerns the target T1, p75NTR NGF receptors (Homo sapiens, UniProt P08138).
T1 construct: expressed in transfected cells; host or cells: HEK293
T1 sequence (P08138 29-427): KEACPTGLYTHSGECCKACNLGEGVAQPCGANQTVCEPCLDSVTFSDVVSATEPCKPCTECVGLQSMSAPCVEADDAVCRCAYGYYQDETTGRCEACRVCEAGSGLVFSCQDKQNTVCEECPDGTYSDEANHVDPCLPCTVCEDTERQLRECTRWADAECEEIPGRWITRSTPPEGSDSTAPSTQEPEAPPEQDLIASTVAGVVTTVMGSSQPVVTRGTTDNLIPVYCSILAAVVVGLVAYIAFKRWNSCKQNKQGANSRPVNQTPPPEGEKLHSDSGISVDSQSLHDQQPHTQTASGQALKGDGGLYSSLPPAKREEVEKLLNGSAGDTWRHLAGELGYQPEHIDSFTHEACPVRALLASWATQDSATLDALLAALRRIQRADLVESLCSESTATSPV
Description: [3H]DHEA competition binding on membranes from HEK293 p75NTR cells. Conditions: membranes from HEK293 p75NTR cells (FIG. 9). The procedure:
(§1) HEK293 cells were transfected with the cDNAs of TrkA and p75NTR, the high and low affinity receptors for nerve growth factor (NGF) (Ann Rev Biochem 72:604, 2003). Transfectants expressing the two NGF receptor subtypes were cultured in flasks and, after washing twice with PBS, they were detached from the flasks. After a centrifugation at 1500 g, they were homogenized by sonication, in a 50 mM Tris-HCl buffer pH 7.4 at 4° C., containing freshly added protease inhibitors (1 mM PMSF and 1 μg/ml aprotinin). Unbroken cells were removed by centrifugation at 1500 g (10 min at 4° C.), and membranes were collected by centrifuging at 102,000 g for 1 hr at 4° C. Membranes were washed once with Tris-HCl, briefly acidified at 4° C. (for 3 min) with 50 mM glycine (pH 5.0), and re-suspended in the same buffer. Protein content was assayed by the method of Bradford, using reagents from Bio-Rad (Hercules, Calif.). Membranes (at a final concentration of 2 mg/ml) were incubated with 5 nM [^3H]DHEA, in the absence (to determine the total binding) or presence of unlabelled BNN-124 at concentrations varying from 10^−12 to 10^−6 M and at a final volume of 100 μl, in Tris-HCl buffer (50 mM, pH 7.4). […] The filters were washed three times with ice-cold Tris-HCl, dried and counted in a β-scintillation counter (Perkin Elmer, Foster City, Calif.) with 60% efficiency for tritium.

Assay [1] concerns DHEA specific membrane receptors. In words: [3H]DHEA competition binding on isolated PC12 cell membranes. More on the design: species or system rat. The procedure:
PC12 rat sympathoadrenal cells were cultured in 225 cm^2 flasks and, after washing twice with PBS, they were detached from the flasks by vigorous shaking. After a centrifugation at 1500 g, they were homogenized by sonication, in a 50 mM Tris-HCl buffer pH 7.4 at 4° C., containing freshly added protease inhibitors (1 mM PMSF and 1 μg/ml aprotinin). Unbroken cells were removed by centrifugation at 1500 g (10 min at 4° C.), and membranes were collected by centrifuging at 102,000 g for 1 hr at 4° C. Membranes were washed once with Tris-HCl, briefly acidified at 4° C. (for 3 min) with 50 mM glycine (pH 5.0), and re-suspended in the same buffer. Protein content was assayed by the method of Bradford, using reagents from Bio-Rad (Hercules, Calif.). Membranes (at a final concentration of 2 mg/ml) were incubated with 5 nM [^3H]DHEA, in the absence (to determine the total binding) or presence of unlabeled neurosteroids and their synthetic spiro analogs, at concentrations varying from 10^−12 to 10^−6 M and at a final volume of 100 μl, in Tris-HCl buffer (50 mM, pH 7.4). Following a […] incubation in a water bath, at 37° C., membranes were collected on GF/B filters, prewet in 0.5% PEI solution at 4° C. The filters were washed three times with ice-cold Tris-HCl, dried, supplemented with scintillation medium (Sigma Hellas, Athens, Greece) and counted in a β-scintillation counter (Perkin Elmer, Foster City, Calif.) with 60% efficiency for Tritium.

Assay [2] relates to Bcl-2 and Bcl-xL proteins. Description: Western blot of anti-apoptotic Bcl-2 and Bcl-xL proteins in serum-deprived PC12 cells. It is filed as cell-based, rat. The following applies: 10 nM neurosteroid (FIG. 4). The procedure:
Neural-crest derived PC12 cells were cultured for 8 hours in the absence of serum, but supplemented with 10 nM of various neurosteroids. At the end of incubation cell lysates were subjected to electrophoresis through a 12% SDS-polyacrylamide gel. Then, proteins were transferred to nitrocellulose membranes, which were processed according to standard Western blotting procedures. To detect protein levels, membranes were incubated with the appropriate antibodies: Bcl-2, (Santa Cruz Biotechnology Inc., Santa Cruz, Calif., dilution 1:100) Bcl-xL (Cell Signalling Technology Inc., Beverly, Mass., dilution 1:100). A PC-based Image Analysis program was used to quantify the intensity of each band (Image Analysis, Inc., Ontario, Canada). To normalize for protein content, the blots were stripped and stained with anti-actin antibodies (Chemicon, Temecula, Calif., dilution 1:400); the concentration of each target protein was normalized versus actin.
A general note: A western blot detects proteins with antibodies after separation by electrophoresis.

The test system of assay [3] is Neural-crest derived PC12 cells. Description: APOPercentage apoptosis assay, serum-deprivation induced apoptosis of PC12 cells. It is filed as cell-based, rat. The following applies: Rattus norvegicus, PC-12, absence of serum 12 hours, ApoPercentage assay (FIG. 2), read-out: IC50 of anti-apoptotic, cytoprotective effect. As to the method: Neural-crest derived PC12 cells were maintained in culture at 5% CO2, at 37° C., in RPMI 1640 medium containing 2 mM L-glutamine, 15 mM HEPES, 100 units/ml penicillin, 0.1 mg/ml streptomycin, 10% horse serum, and 5% foetal calf serum. Serum free medium was supplemented with 1% bovine serum albumin (BSA). Different steroids, used at various concentrations, were initially diluted in ethanol. The final concentration of ethanol in each well, including controls was 0.01%. Conjugate DHEA-BSA was initially diluted in Phosphate Buffer Saline (PBS).
Cells were cultured in the absence of serum for 12 hours, supplemented with DHEA and various synthetic spiro neurosteroids at 10 nM. Cell apoptosis was quantitated with two different methods: The APOPercentage Apoptosis Assay (Biocolor Ltd., Belfast, N. Ireland) was used to quantify apoptosis, according to the manufacturer's instructions. Apoptosis was quantified following cell lysis by measuring the dye incorporated in apoptotic cells at 550 nm (reference filter 620 nm) using a colour filter microplate colorimeter (Dynatech MicroElisa reader, Chantilly, Va.) (see FIGS. 1 and 2). FACS Analysis: FACS analysis of apoptotic cells was performed according to our protocol (Proc Natl Acad Sci USA 101,8209 (2004)). Flow cytometry was performed with FACScan (Becton Dickinson, Heidelberg, Germany) and the results were analysed with the FACScan and Cell Quest softwares (see FIG. 3).

Assay [4] deals with Bcl-2 protein and ERK1/2 kinase. Description: Western blot of Bcl-2 and phosphorylated ERK1/2 in serum deprived PC12 cells. It is filed as cell-based, rat. Conditions: 8 hours, 10 nM BNN-124 or 20 ng/ml NGF (FIG. 9). As to the method:
Neural-crest derived PC12 cells were cultured for 8 hours in the absence of serum, but supplemented with 10 nM of synthetic neurosteroids of 20 ng/ml of NGF. At the end of incubation cell lysates were subjected to electrophoresis through a 12% SDS-polyacrylamide gel. Then proteins were transferred to nitrocellulose membranes, which were processed according to standard Western blotting procedures. To detect protein levels, membranes were incubated with the appropriate antibodies: Bcl-2 (Santa Cruz Biotechnology Inc., Santa Cruz, Calif., dilution 1:100), phosphorylated ERK1/2 (Cell Signalling Technology Inc., Beverly, Mass., dilution 1:100). To normalize for protein content, the blots were stripped and stained with anti-actin or anti-total ERK1/2 antibodies (Chemicon, Temecula, Calif., dilution 1:400).

The target of a further assay is T2, TrkA NGF receptors (Homo sapiens, UniProt P04629).
T2 construct: expressed in transfected cells; host or cells: HEK293
T2 sequence (P04629 33-796): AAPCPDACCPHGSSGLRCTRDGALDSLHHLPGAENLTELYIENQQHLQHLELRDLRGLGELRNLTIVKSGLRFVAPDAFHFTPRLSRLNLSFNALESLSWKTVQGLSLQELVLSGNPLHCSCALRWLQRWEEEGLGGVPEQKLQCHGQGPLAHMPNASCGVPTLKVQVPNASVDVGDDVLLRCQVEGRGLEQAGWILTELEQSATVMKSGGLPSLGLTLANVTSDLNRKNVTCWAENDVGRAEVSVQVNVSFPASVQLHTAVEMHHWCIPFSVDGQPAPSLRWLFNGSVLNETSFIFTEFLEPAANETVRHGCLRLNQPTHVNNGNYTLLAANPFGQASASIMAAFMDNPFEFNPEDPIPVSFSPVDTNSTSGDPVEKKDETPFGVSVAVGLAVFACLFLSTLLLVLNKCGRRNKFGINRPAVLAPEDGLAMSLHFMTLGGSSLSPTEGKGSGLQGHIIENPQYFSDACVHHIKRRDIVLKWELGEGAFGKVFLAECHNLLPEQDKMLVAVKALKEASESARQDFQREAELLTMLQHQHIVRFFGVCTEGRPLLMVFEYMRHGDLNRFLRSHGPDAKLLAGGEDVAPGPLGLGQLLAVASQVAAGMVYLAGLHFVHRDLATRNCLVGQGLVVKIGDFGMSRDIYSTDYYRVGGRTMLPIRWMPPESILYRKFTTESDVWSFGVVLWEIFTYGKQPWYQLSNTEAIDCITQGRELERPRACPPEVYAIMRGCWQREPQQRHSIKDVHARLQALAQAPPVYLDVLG
In words: [3H]DHEA competition binding on membranes from HEK293 TrkA cells. Conditions: membranes from HEK293 TrkA cells (FIG. 9). As to the method: as §1

The term Kd denotes a measure of binding affinity in units of concentration. The low end stands for tighter binding, the high end for weaker binding. One may read the IC50 as the concentration that inhibits the measured activity by half. With `C[C@]12CC[C@H](O)CC1=CCC1C2CC[C@@]2(C)C1CC[C@]21O[C@H]1CO` (stereo partly drawn) [BNN-124, (20S)-3β,21-dihydroxy-17β,20-epoxy-5-pregnene], the Kd on p75NTR NGF receptors amounted to 1 nM; in assay [1] (isolated PC12 cell membranes, 5 nM [3H]DHEA (FIG. 5)), 0.33 nM; at TrkA NGF receptors, 0.29 nM. In assay [1] (at 1 μM, PC12 cell membranes), the “displacement of specific [3H]DHEA binding” value was “approximately 60%”. Further, the “levels of anti-apoptotic Bcl-2 and Bcl-xL proteins” value in assay [2] was “preventing this effect”. In addition, in assay [3], the half-inhibitory concentration (IC50) came to 68.4 nM. Further, the “induction of anti-apoptotic Bcl-2 protein and phosphorylation of ERK1/2 kinase” value in assay [4] is “same effect”.

(Values after patent US9777037B2, “Neurosteroid compounds” (BIONATURE E. A. LTD., priority 2007, dated 2017).)
